Values of other authors in patent publication US20230301938A1 (priority 2022, published 2023).
Like-named read-outs stand apart in the source and are kept apart here.

Experiments:
myocardial ischemia = settings: 10 mg/kg intravenously then 10 mg/kg/h
[1] = tested on: lipopolysaccharide-activated macrophages
[2] = tested on: Nrf2 (-/-) primary peritoneal macrophages
[3] = tested on: Nrf2 (+/+) primary peritoneal macrophages
[4] = tested on: LPS-challenged macrophages; settings: pre-incubated 6 h, 0 to 50 µM, then LPS 24 h
[5] = tested on: lipopolysaccharide-induced inflammatory reactions
sepsis = settings: for concentration of IL-1α: controls 1187.0 ± 278.64
[6] = tested on: endothelium of atherosclerotic plaque; settings: apoE(-/-) mice, injection
[7] = tested on: human umbilical vein VECs (HUVECs)
[8] = 50 and 100 mg/kg/day, vs MD group

## O=C(O[C@@H]1Cc2c(O)cc(O)cc2O[C@@H]1c1cc(O)c(O)c(O)c1)c1cc(O)c(O)c(O)c1 [EGCG]
Macrophage foam cells
  TNF-α-induced nuclear factor-κB (NF-κB) activity: inhibition
Macrophage foam cells; pretreatment
  TNF-α-induced downregulation of ABCA1 and decrease in cholesterol efflux to apoA1: attenuated
Ulcerative colitis (UC); [8]
  disease activity index (DAI): decreased
  spleen index (SI): decreased
Ulcerative colitis (UC); mouse, in vivo
  HIF-1α protein expression in the colon: decreasing
  STAT3 protein expression in the colon: decreasing
  plasma levels of IL-10: increasing
  plasma levels of TGF-β1: increasing
Ulcerative colitis (UC); plasma
  release of IL-6: reduce
  release of IL-17: reduce
Myocardial ischemia
  myeloperoxidase activity: reduced
  myocardial damage: reduced
  plasma IL-6 levels: decreased
  plasma creatine phosphokinase levels: decreased
[1]; cotreated with LPS
  NO production: Inhibition
[1]; electrophoretic mobility shift assay
  activation of nuclear factor-kappaB: blocked

## C[S+]([O-])CCCCN=C=S (stereo not drawn) [sulforaphane, 1-isothiocyanato-4-(methylsulfinyl)-butane]
[2]
  anti-inflammatory effect: attenuated
[3]; LPS-stimulated
  HO-1 expression: significantly augmented
[3]; pretreatment
  LPS-stimulated mRNA expression, protein expression and production of TNF-alpha, IL-1beta, COX-2 and iNOS: potently inhibited
[4]
  expression of NO and cytokines: able to prevent
LPS-induced ARDS; 50 mg/kg
  inducible nitric oxide synthase (iNOS) activity: significantly inhibited
  nuclear factor-κB protein expression: significantly decreased
  prostaglandin E2 (PGE2) production: significantly inhibited
LPS-induced ARDS; 50 mg/kg, ELISA
  serum levels of interleukin-6 (IL-6): significantly decreased
  serum levels of tumor necrosis factor-α (TNF-α): significantly decreased
LPS-induced ARDS; 50 mg/kg, LPS 5 mg/kg
  lactate dehydrogenase (LDH) activity: significantly decreased
  wet-to-dry ratio of the lungs: significantly decreased
LPS-induced ARDS; pre-treatment
  Nrf2/antioxidant response element (ARE) pathway: activated
LPS-induced ARDS; western blot
  cyclooxygenase-2 (COX-2) protein expression: significantly inhibited
  matrix metalloproteinase-9 (MMP-9) protein expression: significantly inhibited

## CC1=CC(=O)C(C(C)C)=CC1=O [thymoquinone]
[5]
  lipopolysaccharide-induced inflammatory reactions: suppressed effectively
[5]; marker of inflammation
  concentration of nitric oxide: reduced significantly
sepsis; 0.75 mg/kg dose
  concentration of IL-1α: 310.8 ± 70.93 pg/mL
sepsis; 0.75 mg/kg, controls 5505.2 ± 333.96
  IL-10 levels: 2885.0 ± 553.98 pg/mL
sepsis; 1 mg/kg group
  concentration of IL-1α: 428.3 ± 71.32 pg/mL
sepsis; P=0.0851
  levels of IL-2: relatively lower levels
sepsis; P=0.1817
  levels of TNF-α: relatively lower levels
sepsis; mice, sepsis
  reduction of mortality: 80-90%
  renal and hepatic biomarker profiles: improved

## trans-3,5-dimethoxy-4-hydroxystilbene [pterostilbene]
[6]
  number of TUNEL-positive cells in the endothelium of atherosclerotic plaque: strongly decreased
[7]; HUVECs, oxLDL 200 µg/ml
  oxLDL-induced cell shrinkage, chromatin condensation, nuclear fragmentation, and cell apoptosis: protected against such injuries
[7]; in vitro and in vivo
  expression of lectin-like oxLDL receptor-1 (LOX-1): inhibited
